Test results reported in article PMC10374545, “A small molecule inhibitor of PTP1B and PTPN2 enhances T cell anti-tumor immunity” (Nature Communications, 2023).

Columns and labels:
PTPN2 = molecular target: T1, PTPN2 (Homo sapiens, UniProt P17706); test: PTP inhibition assay with DiFMUP substrate (IC50); type: biochemical; conditions: DiFMUP 10 μM as substrate
T1 construct: PTPN2, residues 1-387; made in house; host or cells: E. coli BL21(DE3)
T1 sequence (P17706 1-387 isoform P17706-2): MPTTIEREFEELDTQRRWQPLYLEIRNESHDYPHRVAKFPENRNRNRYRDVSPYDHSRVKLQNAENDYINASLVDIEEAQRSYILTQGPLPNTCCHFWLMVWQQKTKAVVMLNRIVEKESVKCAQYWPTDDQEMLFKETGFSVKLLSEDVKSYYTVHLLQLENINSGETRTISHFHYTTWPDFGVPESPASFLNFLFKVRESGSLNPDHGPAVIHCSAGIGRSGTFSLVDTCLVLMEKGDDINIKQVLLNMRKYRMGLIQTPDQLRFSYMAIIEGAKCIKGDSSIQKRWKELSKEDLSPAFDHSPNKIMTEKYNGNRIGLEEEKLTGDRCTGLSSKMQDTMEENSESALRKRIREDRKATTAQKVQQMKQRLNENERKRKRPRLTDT
Method: E. coli BL21(DE3) (Novagen) was used as an expression host and the induction of protein expression was carried out in LB media with 1 mM IPTG at 18 °C overnight. Cell pellets were stored at −80 °C for subsequent protein purification.
Protein purification of PTPs for enzymatic assays was conducted at 4 °C. Frozen cell pellets were lysed by sonication in 40 ml cold lysis buffer (50 mM Tris-HCl, pH 8.0, 150 mM NaCl, 5 mM imidazole, and 1 mM PMSF) per litre cell pellet. Cell lysates were clarified by centrifugation using a Beckman JA-18 rotor for 15 min at 5308 x g. The supernatant was incubated with HisPur Ni-NTA resin (Thermo Scientific) for 2 h and then packed onto a column and washed with 50 resin volume of buffer A (50 mM Tris-HCl, pH 8.0, 500 mM NaCl, 5 mM imidazole). The His-tagged proteins were eluted with Buffer B (50 mM Tris-HCl, pH=8.0, 500 mM NaCl, 300 mM imidazole,). Pooled His-protein-containing fractions were concentrated, loaded onto a HiLoad 26/600 Superdex 75 column (GE Healthcare Biosciences) and eluted with storage buffer (50 mM Tris-HCl, pH 8.0, 150 mM NaCl, 1 mM DTT, 10% glycerol). […] The protein was aliquoted and stored at −80 °C.
(§1) The PTP kinetic assay was modified from previous reported protocols[73],[74]. […] The fluorescence signal was measured using a CLARIOstar Plus Microplate Spectrophotometer (BMG Labtech) using excitation and emission wavelengths of 340 nm and 450 nm, respectively. […]
(§2) To determine the mode of inhibition, the reactions were initiated by the addition of enzyme (final concentration for PTP1B and PTPN2 was 0.05 nM) to the reaction mixtures (0.2 ml) containing various concentrations of DiFMUP with different concentrations of the inhibitor. […] The fluorescence signal was measured using a CLARIOstar Plus Microplate Spectrophotometer (BMG Labtech) using excitation and emission wavelength of 340 nm and 450 nm, respectively. […]

PTP1B = molecular target: T2, PTP1B (Homo sapiens, UniProt P18031); test: PTP inhibition assay with DiFMUP substrate (IC50); type: biochemical
T2 construct: PTP1B, residues 1-321; made in house; host or cells: E. coli BL21(DE3)
T2 sequence (P18031 1-321): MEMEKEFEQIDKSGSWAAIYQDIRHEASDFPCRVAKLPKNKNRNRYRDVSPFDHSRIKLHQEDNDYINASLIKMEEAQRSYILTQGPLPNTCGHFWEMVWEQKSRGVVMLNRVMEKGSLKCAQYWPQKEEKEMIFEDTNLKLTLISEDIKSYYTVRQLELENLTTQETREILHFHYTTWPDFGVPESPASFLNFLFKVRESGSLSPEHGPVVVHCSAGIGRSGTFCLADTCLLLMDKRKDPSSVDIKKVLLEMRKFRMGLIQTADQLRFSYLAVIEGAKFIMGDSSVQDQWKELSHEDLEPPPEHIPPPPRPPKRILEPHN
Method: Cell pellets were stored at −80 °C for subsequent protein purification.
Protein purification of PTPs for enzymatic assays was conducted at 4 °C. Frozen cell pellets were lysed by sonication in 40 ml cold lysis buffer (50 mM Tris-HCl, pH 8.0, 150 mM NaCl, 5 mM imidazole, and 1 mM PMSF) per litre cell pellet. […] The supernatant was incubated with HisPur Ni-NTA resin (Thermo Scientific) for 2 h and then packed onto a column and washed with 50 resin volume of buffer A (50 mM Tris-HCl, pH 8.0, 500 mM NaCl, 5 mM imidazole). The His-tagged proteins were eluted with Buffer B (50 mM Tris-HCl, pH=8.0, 500 mM NaCl, 300 mM imidazole,). […]
as §1, §2

In the case of `CC(C)CCN[C@@H]1CCc2cc(O)c(N3CC(=O)NS3(=O)=O)c(F)c2C1` [ABBV-CLS-484], the IC50 (PTPN2) is reported as 1.6 ± 0.06 nM, the IC50 (PTP1B; DiFMUP 10 μM as substrate) is reported as 1.84 ± 0.09 nM and the “IC50 values relative to those of Compound 182” value (PTP1B; PTP1B and PTPN2, same conditions) is reported as “approximately 3 fold”.
